From patent US5672597A, “Acetamide derivative” (Kaken Pharmaceutical Co., Ltd., priority 1992, dated 1997) come the findings set out here.

Read-outs that look alike come from different tables or passages of the source.

Assay [1] deals with ulcer induced by pylorus-ligation. The assay is described as follows: Test of ulcer induced by pylorus-ligation. The format is in vivo, wistar male rat. The following applies: 14 h, read-out: Percentage of inhibition of ulcer formation. The method, then: (§1) With respect to anti-ulcer effect of the compounds having the general formula (I), there were carried out a test of ulcer induced by pylorus-ligation, which ulcer is induced mainly due to offensive factors; a test of ulcer induced by hydrochloric acid/ethanol, which ulcer is induced mainly due to defensive factors such as mucosal blood flow and mucus; and a test of ulcer induced by a stress of restraint plus water-immersion, which ulcer is induced due to both of offensive and defensive factors. Further, there were carried out a test of ulcer induced by acetic acid as a chronic ulcer model and a test of cure-prolonged ulcer induced by acetic acid. Also, there was examined an activity of increasing gastric mucosal blood flow, which activity brings about acceleration of regeneration of the gastric mucosa. As test compounds, hydrochloride salts were used.
The pylorus of a wistar male rat weighing 230 to 250 g, which had fasted for 48 hours, was ligated under ether-anesthesia, according to a usual method. After 14 hours, the animal was sacrificed by ether and the stomach was taken out therefrom.
The area of the ulcer generated on the fore-stomach was measured and the total area of the ulcer per rat was classified into the following six grades to give ulcer coefficients (Table 4).
Each of them was suspended in 0.5% methylcellulose solution and administered in the duodenum immediately after ligating the pylorus, in a dose of 100 mg/kg (body weight), respectively. To control group, only the medium for the medicament solution was administered in an amount of 0.25 ml/100 g (body weight).
The obtained results were subjected to the following formula to calculate a percentage of inhibition of ulcer formation. Six rats were used in each group for the test: [formula]

In assay [2] the test system is ulcer induced by a stress of restraint plus water-immersion. The assay is described as follows: Test of ulcer induced by a stress of restraint plus water-immersion. To be noted: 7 h, read-out: Percentage of inhibition of ulcer formation; for inhibition in vivo at 30 mg/kg: mouse, 30 mg/kg oral, 15 minutes before the load of the stress, hydrochloride salts. The format is in vivo, ddY male mouse. On the procedure:
as §1
A ddY male mouse weighing 20 to 25 g, which had fasted for 18 hours, was put into a stress cage, and was loaded with a stress by immersing it in a water tank at 23° C., to a level of a xiphoid. After 7 hours, the animal was sacrificed by dislocating the cervical vertebrae and the stomach was taken out therefrom. The length of the ulcer generated on the glandular stomach was measured and the total thereof was regarded as the ulcer coefficient (mm).
To control group, only the medium for the medicament solution was orally administered in an amount of 0.1 ml/10 g (body weight) 15 minutes before the load of the stress.
(§2) The obtained results were subjected to the same formula as in the test of ulcer induced by pylorus-ligation, to calculate a percentage of inhibition of ulcer formation. Six rats were used in each group for the test.

Assay [3] concerns ulcer induced by hydrochloric acid/ethanol. The assay is described as follows: Test of ulcer induced by hydrochloric acid/ethanol. The format is in vivo, wistar male rat. The following applies: 1 h, read-out: Percentage of inhibition of ulcer formation; for inhibition in vivo at 30 mg/kg: 30 mg/kg oral, hydrochloride salts. The method, then: as §1
To a wistar male rat weighing 220 to 240 g, which had fasted and thirsted for 24 hours, was orally administered 150 mM hydrochloric acid/70% ethanol solution in an amount of 5 ml/kg (body weight). After 1 hour, the animal was sacrificed by dislocating the cervical vertebrae and the stomach was taken out therefrom. The length of the ulcer generated on the glandular stomach was measured and the total thereof was regarded as the ulcer coefficient (mm).
To control group, only the medium for the medicament solution was orally administered in an amount of […] (body weight), 30 minutes before the administration of hydrochloric acid/ethanol.
as §2

The test system of assay [4] is ulcer induced by acetic acid. Nature of the assay: Test of ulcer induced by acetic acid. The assay is classed as in vivo, wistar male rat. The following applies: rat, 15 mg/kg oral, twice a day from 2 days after generation of the ulcer. The method, then: as §1
Into the junction of the glandular stomach and the antrum, of a wistar male rat weighing 220 to 240 g, was injected subserosally […] of 20% acetic acid to generate an ulcer induced by acetic acid. […] Each of them was suspended in 0.5% methylcellulose solution, and administered orally in a dose of 15 mg/kg, twice a day (in the morning and in the evening) from 2 days after the generation of the ulcer for days, respectively. The animal was sacrificed by ether on the day after the last administration, and the stomach was taken out therefrom. The area of the ulcer was measured.
The obtained results were subjected to the following formula to calculate a percentage of improvement for curing ulcer. To control group, only the medium for the medicament solution was administered in an amount of 0.5 ml/100 g (body weight). Twenty rats were used in each group for the test. [formula]

Assay [5] relates to cure-prolonged ulcer induced by acetic acid. The assay is described as follows: Test of cure-prolonged ulcer induced by acetic acid. The format is in vivo, wistar male rat. To be noted: rat, 50 mg/kg oral, twice a day; cure prolonged with indomethacin 1 mg/kg s.c. for 13 days. The method, then:
as §1
Into the junction of the glandular stomach and the antrum, of a wistar male rat weighing 220 to 240 g, was injected subserosally 30 μl of 20% acetic acid to generate an ulcer induced by acetic acid. From 2 days after the generation of the ulcer, indomethacin was injected subcutaneously in the regions of back of the rat in a dose of 1 mg/kg, once a day for 13 days to prolong the cure of the ulcer induced by acetic acid.
Each of them was suspended in 0.5% methylcellulose solution, and administered orally in a dose of 50 mg/kg, twice a day (in the morning and in the evening) from 13 days, respectively. The animal was sacrificed by ether on the day after the last administration, and the stomach was taken out therefrom. The area of the ulcer was measured. The obtained results were subjected to the following formula to calculate a percentage of improvement for curing ulcer. To control group, only the medium for the medicament solution was administered in an amount of 0.5 ml/100 g (body weight). Twenty rats were used in each group for the test. [formula]

Setting [6] is: rat, 100 mg/kg, in the duodenum immediately after ligating the pylorus, hydrochloride salts.
Where [7] appears, read: rat, 30 minutes before hydrochloric acid/ethanol.

With `CCOC(=O)NCCSCC(=O)NC/C=C\COc1cccc(CN2CCCCC2)c1` [Example 14, N-[4-[3-(piperidinomethyl)phenoxy]-cis-2-butenyl]-2-[2-(ethoxycarbonylamino)ethylthio]acetamide], the inhibition in vivo at 100 mg/kg in assay [1] (setting [6]) was found to be 63%. The inhibition in vivo at 30 mg/kg in assay [2] was found to be 91%; in assay [3] (setting [7]) it was 77%.
The matching figures for `COc1ccc(CN2CCCCC2)cc1OC/C=C\CNC(=O)CSCCNC(=O)c1ccoc1` [Example 4, N-[4-[(2-methoxy-5-piperidinomethyl)phenoxy]-cis-2-butenyl]-2-[2-(3-furoylamino)ethylthio]acetamide]: 73%, 75% and 97%.
In the case of `O=C(CSCCNC(=O)c1ccoc1)NC/C=C\COc1cccc(CN2CCCCC2)c1` [Example 10, N-[4-[3-(piperidinomethyl)phenoxy]-cis-2-butenyl]-2-[2-(3-furoylamino)ethylthio]acetamide], the inhibition in vivo at 100 mg/kg in assay [1] (setting [6]) amounted to 73%. The inhibition in vivo at 30 mg/kg in assay [2] came out at 73%; in assay [3] (setting [7]), 89%.
On to `COC(=O)NCC[S+]([O-])CC(=O)NC/C=C\COc1cccc(CN2CCCCC2)c1` (centres unmarked) [Example 79], for which the inhibition in vivo at 100 mg/kg in assay [1] (setting [6]) was 57%. The inhibition in vivo at 30 mg/kg was found to be 67% in assay [2] and 78% in assay [3] (setting [7]).
The matching figures for `COC(=O)NCC[S+]([O-])CC(=O)NCCCOc1cccc(CN2CCCCC2)c1` (centres unmarked) [Example 48]: 95%, 100% and 73%.
The matching figures for `COC(=O)NCCSCC(=O)NCCCOc1cccc(CN2CCCCC2)c1` [Example 12, N-[3-[3-(piperidinomethyl)phenoxy]propyl]-2-[2-(methoxycarbonylamino)ethylthio]acetamide]: 77%, 68% and 68%.
In the same order, the values of `CCOC(=O)NCCSCC(=O)NCCCOc1cccc(CN2CCCCC2)c1` [Example 13, N-[3-[3-(piperidinomethyl)phenoxy]propyl]-2-[2-(ethoxycarbonylamino)ethylthio]acetamide] are 68%, 89% and 69%.
With `CCC(=NC#N)NCCSCC(=O)NC/C=C\COc1cccc(CN2CCCCC2)c1` [Example 11, N-[4-[3-(piperidinomethyl)phenoxy]-cis-2-butenyl]-2-[2-[(N-cyanopropioimidoyl)amino]ethylthio]-acetamide], the inhibition in vivo at 100 mg/kg in assay [1] (setting [6]) was 55%. Moreover, the inhibition in vivo at 30 mg/kg in assay [2] amounted to 70%; in assay [3] (setting [7]), 51%.
In the same order, the values of `C=CCOC(=O)NCC[S+]([O-])CC(=O)NC/C=C\COc1cccc(CN2CCCCC2)c1` (centres unmarked) [Example 81] are 76%, 73% and 69%.
In the same order, the values of `COC(=O)NCCSCC(=O)NC/C=C\COc1cccc(CN2CCCCC2)c1` [Example 15, N-[4-[3-(piperidinomethyl)phenoxy]-cis-2-butenyl]-2-[2-(methoxycarbonylamino)ethylthio]acetamide] are 68%, 98% and 60%.
As for `CN/C(=N/CCSCc1nc[nH]c1C)NC#N` [cimetidine, reference compound], the inhibition in vivo at 100 mg/kg turned out to be 27% in assay [1] (Rattus norvegicus); 61% in assay [2] (Mus musculus, po); 7% in assay [3] (Rattus norvegicus, po).
Regarding `CCCCNC(=S)NCCSCC(=O)NC/C=C\COc1cc(CN2CCCCC2)ccn1` [Example 95], in assay [1] (setting [6]), the inhibition in vivo at 100 mg/kg came out at 73%. Further, the inhibition in vivo at 30 mg/kg turned out to be 71% in assay [2] and 72% in assay [3] (setting [7]).
Consider `O=C(CSCCNC(=O)c1ccccn1)NCCCOc1cccc(CN2CCCCC2)c1` [Example 6], for which the inhibition in vivo at 100 mg/kg in assay [1] (setting [6]) was found to be 67%. Besides, the inhibition in vivo at 30 mg/kg in assay [2] turned out to be 88%; in assay [3] (setting [7]), 61%.
The matching figures for `CNC(=S)NCCSCC(=O)NCCCOc1cccc(CN2CCCCC2)c1` [Example 16, N-[3-[3-(piperidinomethyl)phenoxy]propyl]-2-[2-(N'-methylthioureido)ethylthio]acetamide]: 70%, 74% and 62%.
`O=C(CSCCNC(=O)c1ccccc1)NC/C=C\COc1cccc(CN2CCCCC2)c1` [Example 8, N-[4-[3-(piperidinomethyl)phenoxy]-cis-2-butenyl]-2-[2-(benzoylamino)ethylthio]acetamide]: the inhibition in vivo at 100 mg/kg in assay [1] (setting [6]) was 50%. The inhibition in vivo at 30 mg/kg came out at 93% in assay [2] and 90% in assay [3] (setting [7]).
Regarding `COc1ccccc1C(=O)NCCSCC(=O)NC/C=C\COc1cc(CN2CCCCC2)ccn1` [Example 91], the inhibition in vivo at 100 mg/kg in assay [1] (setting [6]) was found to be 69%. The inhibition in vivo at 30 mg/kg in assay [2] was determined as 83%; in assay [3] (setting [7]), 87%.
In the same order, the values of `O=C(CSCCNC(=O)c1ccccc1F)NCCCOc1cccc(CN2CCCCC2)c1` [Example 44] are 57%, 77% and 83%.
Regarding `NC(N)=Nc1nc(CSCCC(N)=NS(N)(=O)=O)cs1` [famotidine, reference compound], the inhibition in vivo at 100 mg/kg was found to be 70% in assay [1] (setting [6]); 34% in assay [3] (rat, 100 mg/kg oral (cimetidine and famotidine), 30 minutes before hydrochloric acid/ethanol). Further, the inhibition in vivo at 30 mg/kg in assay [2] was 100%. The “Percentage of improvement for curing ulcer” value in assay [4] amounted to 7%; in assay [5], 26%.
For the compound `O=C(CSCCNC(=O)c1ccco1)NCCCOc1cccc(CN2CCCCC2)c1` [Example 5, N-[3-[3-(piperidinomethyl)phenoxy]propyl]-2-[2-(2-furoylamino)ethylthio]acetamide], the inhibition in vivo at 100 mg/kg in assay [1] (setting [6]) worked out at 57%. Further, the results for the inhibition in vivo at 30 mg/kg in assay [2] and in assay [3] (setting [7]) were 93% and 97%, respectively.
In the same order, the values of `COc1ccccc1C(=O)NCCSCC(=O)NC/C=C\COc1cccc(CN2CCCCC2)c1` [Example 73] are 60%, 69% and 67%.
